Like-named read-outs stand apart in the source and are kept apart here.
Target: T1, WT human CNGA3 plus WT CNGB3 heteromeric channels (Homo sapiens, UniProt Q16281+Q9NQW8)
T1 construct: expressed in transfected cells; host or cells: Xenopus laevis oocytes injected with cRNA transcribed from pGEMHE constructs
T1 sequence (Q16281 1-694): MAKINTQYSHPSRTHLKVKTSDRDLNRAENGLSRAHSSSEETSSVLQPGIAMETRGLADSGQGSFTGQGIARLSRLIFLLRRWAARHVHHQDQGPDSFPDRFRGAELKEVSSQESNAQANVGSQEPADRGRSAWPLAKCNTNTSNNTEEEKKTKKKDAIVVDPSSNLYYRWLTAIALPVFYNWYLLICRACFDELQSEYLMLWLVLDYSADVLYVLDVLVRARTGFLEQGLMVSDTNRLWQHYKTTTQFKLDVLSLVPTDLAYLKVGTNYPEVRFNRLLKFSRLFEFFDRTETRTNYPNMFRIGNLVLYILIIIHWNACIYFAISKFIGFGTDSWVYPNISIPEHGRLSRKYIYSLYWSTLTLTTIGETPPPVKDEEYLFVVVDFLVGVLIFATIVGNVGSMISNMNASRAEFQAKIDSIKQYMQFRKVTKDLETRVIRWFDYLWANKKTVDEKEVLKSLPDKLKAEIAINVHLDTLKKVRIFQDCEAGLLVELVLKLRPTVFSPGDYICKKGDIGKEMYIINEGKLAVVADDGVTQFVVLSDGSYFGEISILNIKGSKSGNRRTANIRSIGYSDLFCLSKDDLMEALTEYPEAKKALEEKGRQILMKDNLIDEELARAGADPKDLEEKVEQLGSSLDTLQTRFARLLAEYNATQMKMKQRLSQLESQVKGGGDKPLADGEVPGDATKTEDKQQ
T1 sequence (Q9NQW8 1-809): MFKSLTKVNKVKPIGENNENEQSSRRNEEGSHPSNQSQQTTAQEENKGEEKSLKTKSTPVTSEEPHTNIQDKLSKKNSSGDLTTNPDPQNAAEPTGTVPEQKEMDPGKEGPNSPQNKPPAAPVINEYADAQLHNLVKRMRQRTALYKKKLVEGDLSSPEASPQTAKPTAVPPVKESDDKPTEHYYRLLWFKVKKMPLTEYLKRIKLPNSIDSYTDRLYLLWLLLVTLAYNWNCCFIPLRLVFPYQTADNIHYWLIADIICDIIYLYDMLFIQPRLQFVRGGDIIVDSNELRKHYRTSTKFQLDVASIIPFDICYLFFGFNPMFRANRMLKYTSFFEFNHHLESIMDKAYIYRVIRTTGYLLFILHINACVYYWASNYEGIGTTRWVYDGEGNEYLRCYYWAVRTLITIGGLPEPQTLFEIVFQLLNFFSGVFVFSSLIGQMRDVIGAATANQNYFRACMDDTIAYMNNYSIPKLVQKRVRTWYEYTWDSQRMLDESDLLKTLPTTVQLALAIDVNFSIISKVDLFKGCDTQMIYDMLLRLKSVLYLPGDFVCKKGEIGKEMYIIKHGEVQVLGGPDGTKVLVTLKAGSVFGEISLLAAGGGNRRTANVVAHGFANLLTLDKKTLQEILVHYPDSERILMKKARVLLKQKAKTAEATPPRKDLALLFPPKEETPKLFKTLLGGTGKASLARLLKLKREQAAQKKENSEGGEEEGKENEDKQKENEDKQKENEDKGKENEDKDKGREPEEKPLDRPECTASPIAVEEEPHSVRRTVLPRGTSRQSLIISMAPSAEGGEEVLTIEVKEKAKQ
Test: Inside-out patch-clamp recording of channels expressed in Xenopus oocytes (WT heteromeric)
Type: biochemical
Description: For heterologous expression in Xenopus laevis oocytes, identical amounts of cDNA were linearized using SphI or NheI, and capped cRNA was transcribed in vitro using the T-7 RNA polymerase mMESSAGE mMACHINE® kit (Ambion, Austin, TX). cRNA concentrations and relative amounts were determined by denaturing gel electrophoresis and KODAK 1D image analysis software (Rochester, NY), as well as by spectrophotometry. […] Oocytes were incubated in ND96 (96 mM NaCl, 2 mM KCl, 1.8 mM CaCl2, 1 mM MgCl2, and 5 mM HEPES, pH 7.6, supplemented with 10 μg/ml gentamycin).
Two to seven days after microinjection of cRNA, patch-clamp experiments were performed using the inside-out configuration with an Axopatch 200B amplifier (Axon Instruments, Foster City, CA). Recordings were made at 20–23 °C. Data were acquired using Pulse software (HEKA Elektronik, Lambrecht, Germany). Current traces were elicited by voltage steps from a holding potential of 0 mV to +80 mV, then to −80 mV and back to 0 mV. Initial pipette resistances were 0.4–0.8 megaohms. Intracellular and extracellular solutions contained 130 mM NaCl, 0.2 mM EDTA, and 3 mM HEPES (pH 7.2). Intracellular solutions were exchanged using an RSC-160 rapid solution changer (Molecular Kinetics, Indianapolis, IN). Currents in the absence of cyclic nucleotides were subtracted. For channel activation by CPT-cGMP or CPT-cAMP, dose–response data were fitted with the Hill equation, I/Imax=([cNMP]^h/(K1/2^h + [cNMP]^h)), where I is the current amplitude at +80 mV, Imax is the maximum current elicited by saturating concentration of ligand, [cNMP] is the ligand concentration, K1/2 is the apparent ligand affinity, and h is the Hill slope. We measured sensitivity to block by L-cis-diltiazem (RBI, Natick, MA) applied to the intracellular face of the patch in the presence of 0.1 μM CPT-cGMP. Data were fit with a modified Hill equation in the form I blocker/I=(K1/2^h/(K1/2^h + [blocker]^h)). Data were analyzed using Igor (Wavemetrics, Lake Oswego, OR), SigmaPlot, and SigmaStat (Systat Software Inc., San Jose, CA). All values are reported as the mean±standard error of the mean of n experiments unless otherwise indicated. Statistical significance was determined using a Student t test or Mann–Whitney rank sum test, and a p value of <0.05 was considered significant.

SMILES: Nc1ncnc2c1nc(Sc1ccc(Cl)cc1)n2[C@@H]1O[C@@H]2COP(=O)(O)O[C@H]2[C@H]1O [CPT-cAMP, CPT-adenosine 3′,5′-cyclic monophosphate]
- relative agonist efficacy Imax, CPT-cAMP/Imax, CPT-cGMP (+80 mV, CPT-cAMP 100 μM vs CPT-cGMP 4 μM, mean±SEM, n=10): 0.25±0.03
- Hill slope h, CPT-cAMP activation (Hill fit, mean±SEM, n=10): 1.7±0.1
- EC50 (Hill fit, mean±SEM, n=10, read-out: apparent affinity K1/2, CPT-cAMP (channel activation)): 28.1 ± 2.6 µM
- Hill slope h, CPT-cAMP, representative dose-response (representative patch, Figure 5A): 1.4
- EC50 (representative patch, Figure 5A, read-out: K1/2,CPT-cAMP, representative dose-response): 28.3 µM

SMILES: Nc1nc2c(nc(Sc3ccc(Cl)cc3)n2[C@@H]2O[C@@H]3COP(=O)(O)O[C@H]3[C@H]2O)c(=O)[nH]1 [CPT-cGMP, 8-(4-chlorophenylthio) guanosine 3′,5′-cyclic monophosphate]
- Hill slope h, CPT-cGMP activation (+80 mV, Hill fit, mean±SEM, n=13): 1.5±0.05
- EC50 (+80 mV, Hill fit, mean±SEM, n=13, read-out: apparent CPT-cGMP affinity K1/2, CPT-cGMP (channel activation)): 0.254 ± 0.0181 µM
- maximum patch current density (Imax/area) (+80 mV, saturating CPT-cGMP (4 μM), mean±SEM, n=13): 55.1±10.9 pA/μm^2
- Hill slope h, CPT-cGMP, representative dose-response (representative patch, Figure 1B): 1.5
- EC50 (representative patch, Figure 1B, read-out: K1/2,CPT-cGMP, representative dose-response): 0.248 µM
- potency relative to unmodified cGMP for channel activation (unmodified cGMP values from refs 19, 26): 80–100 fold

Reference: paper PMC3692405, “Disease-associated mutations in CNGB3 promote cytotoxicity in photoreceptor-derived cells” (Molecular Vision, 2013)
